# Laboratory results reported in ChEMBL document CHEMBL1124045, “Synthesis and antiviral evaluation of carbocyclic analogues of 2'-azido- and 2'-amino-2'-deoxycytidine” (1988).
# Calls of active or inactive are those of the source. The rule behind the calls is not given here.
# Legend:
# Human alphaherpesvirus 1 [1] = test: Antiviral activity in vitro against Herpes simplex virus type 1 (HSV-1); format: functional; settings: read-out: ED50 (the source's name)
# Human alphaherpesvirus 1 [2] = test: Antiviral activity in vitro against Herpes simplex virus type 1 (HSV-1); NA is not active uM; format: functional, organism-based
SMILES,EC50 (Human alphaherpesvirus 1 [1]),ED50 (Human alphaherpesvirus 1 [2])
Nc1ccn(C2CC(CO)[C@H](O)[C@@H]2N)c(=O)n1 (some centres not stated),50 µM,–
[N-]=[N+]=N[C@@H]1C(n2ccc(N)nc2=O)CC(CO)[C@@H]1O (some centres not stated),–,inactive
